Columns and labels:
Var-261 cells [1] = test: 125I-AcLDL degradation and binding plus uptake at 37° C. in Var-261 cells; type: cell-based, Chinese hamster; details: for competition for 125I-AcLDL degradation: 125I-AcLDL 5 μg/ml, 5 hr
dSR-CI = test: Competitive inhibition of 125I-AcLDL degradation activity by CHO[dSR-CI]-2.6a cells; type: cell-based, Drosophila melanogaster
Method: (§1) Scavenger receptor activities at 37° C. were measured by ligand binding, uptake and degradation assays as described by Krieger, 1983; Freeman et al., 1991). Although binding and uptake at 37° C. were determined separately using dextran-sulfate to free surface bound lipoproteins from the cells as described for LDL receptor assays by Goldstein et al., 1983; Basu et al., 1983 Science 219, 871-873), this method for separating bound from internalized ligand for ^125I-AcLDL and scavenger receptors has not been independently validated. Accordingly, the values for binding and uptake were combined and are presented as binding plus uptake observed after a 5 hour incubation and are expressed as ng of ^125I-AcLDL protein per 5 hr per mg cell protein. Degradation activity is expressed as ng of ^125I-AcLDL protein degraded in 5 hours per mg of cell protein. The specific, high affinity values presented represent the differences between the results obtained in the presence (single determinations) and absence (duplicate determinations) of excess unlabeled competing ligand (75 to 200 μg/ml of M-BSA). Cell surface 4° C. binding was assayed using either method A or method B as indicated. In method A, cells were prechilled on ice for 15 min, re-fed with ^125I-AcLDL in ice-cold medium B supplemented with 10% (v/v) fetal bovine serum, with or without 75-200 μg/ml unlabeled M-BSA, and incubated 2 hr at 4° C. on a shaker. Cells were then washed rapidly three times with Tris wash buffer (50 mM Tris-HCl, 0.15M NaCl, pH 7.4) containing 2 mg/ml BSA, followed by two 5 min washes, and two rapid washes with Tris wash buffer without BSA. The cells were solubilized in 1 ml of 0.1N NaOH for 20 min at room temperature on a shaker, 30 μl were removed for protein determination, and the radioactivity in the remainder was determined using a LKB gamma counter. Method B differed from method A in that the cells were prechilled for 45 minutes, the medium contained 10 mM HEPES and 5% (v/v) human lipoprotein-deficient serum rather than fetal bovine serum, and the cell-associated radioactivity released by treatment with dextran sulfate was measured as described by Krieger, 1983; Freeman et al., 1991).
Competitive binding of AcLDL was performed to more accurately define the specificity of the AcLDL binding.

haSR-BI = target: T1, haSR-BI (Cricetulus griseus, UniProt Q60417); test: 125I-AcLDL binding at 4° C. to haSR-BI in transfected COS or ldlA cells; design: species or system hamster; details: ldlA[haSR-BI] cells, 125I-AcLDL 5 μg/ml, FIG. 3B: M-BSA 10, poly G 500, fucoidin 200, carrageenan 200, LDL 500 μg/ml
T1 construct: expressed in transfected cells
T1 sequence (Q60417 1-509): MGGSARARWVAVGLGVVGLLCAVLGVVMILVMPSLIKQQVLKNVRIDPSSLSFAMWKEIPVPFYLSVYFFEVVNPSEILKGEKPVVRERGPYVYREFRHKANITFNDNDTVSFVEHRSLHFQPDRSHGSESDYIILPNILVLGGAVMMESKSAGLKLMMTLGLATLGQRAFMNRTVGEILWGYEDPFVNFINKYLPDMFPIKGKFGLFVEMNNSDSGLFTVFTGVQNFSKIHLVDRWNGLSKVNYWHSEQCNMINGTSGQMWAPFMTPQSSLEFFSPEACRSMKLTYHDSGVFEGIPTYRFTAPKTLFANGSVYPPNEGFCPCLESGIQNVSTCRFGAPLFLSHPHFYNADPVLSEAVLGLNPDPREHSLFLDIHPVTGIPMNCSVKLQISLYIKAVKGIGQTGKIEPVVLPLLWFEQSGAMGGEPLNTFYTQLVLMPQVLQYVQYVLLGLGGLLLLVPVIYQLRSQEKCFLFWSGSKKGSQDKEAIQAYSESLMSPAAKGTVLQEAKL
Method: as §1
HDL and VLDL binding to SR-BI and CD36 were conducted as described for LDL and modified LDL.
(§2) To measure binding of AcLDL, on day 1, COS cells were transfected with the expression vector for the hamster scavenger receptor type BI (haSR-BI). On day 2 the transfected COS cells were plated in 6-well dishes (1×10^6 cells/well in medium A plus 1 mM sodium butyrate). […] On day 3 the binding of ^125I-AcLDL (5 μg/ml) at 4° C. in the absence or presence of the indicated competitors was measured using Method A. The values shown in the Figures represent the averages of duplicate determinations. […]

Var-261 cells [2] = test: 125I-AcLDL binding at 4° C. to Var-261 cells, competition; design: species or system Chinese hamster; details: 125I-AcLDL 5 μg/ml, FIG. 3B: M-BSA 10, poly G 500, fucoidin 200, carrageenan 200, LDL 500 μg/ml
Method: as §1, §2

CD36 = target: T2, CD36 (Homo sapiens, UniProt P16671); test: 125I-AcLDL degradation at 37° C. in COS cells transfected with CD36, competition; type: cell-based; details: 5 hr, FIG. 4B: M-BSA 4, AcLDL 500, fucoidin 200, poly I 500, poly G 500, ReLPS 250 μg/ml
T2 construct: expressed in transfected cells; host or cells: COS cells (transient)
Method: as §1
COS cells were transfected on day 1 with a plasmid encoding CD36. On day 2 the transfected cells were set in 6-well dishes at 1×10^6 cells/well in medium A plus 1 mM sodium butyrate. On day 3, 125I-AcLDL binding at 4° C. was measured. […] On day 3, degradation of ^125I-AcLDL (5 μg/ml) was measured after a 5 hr incubation at 37° C. in the absence (duplicate determinations) or presence (duplicate determinations) of the indicated competitors. […]

[3] = target: T3, murine type II macrophage scavenger receptor (mSR-AII) (Mus musculus, UniProt P30204); test: 125I-AcLDL degradation at 37° C. in COS cells expressing murine scavenger receptor type II; type: cell-based; details: for competition for 125I-AcLDL degradation: COS[mSR-AII] cells, 125I-AcLDL 5 μg/ml, 5 hr, 37° C.
T3 construct: expressed in transfected cells; host or cells: COS cells (transient)
T3 sequence (P30204 1-354 isoform P30204-2): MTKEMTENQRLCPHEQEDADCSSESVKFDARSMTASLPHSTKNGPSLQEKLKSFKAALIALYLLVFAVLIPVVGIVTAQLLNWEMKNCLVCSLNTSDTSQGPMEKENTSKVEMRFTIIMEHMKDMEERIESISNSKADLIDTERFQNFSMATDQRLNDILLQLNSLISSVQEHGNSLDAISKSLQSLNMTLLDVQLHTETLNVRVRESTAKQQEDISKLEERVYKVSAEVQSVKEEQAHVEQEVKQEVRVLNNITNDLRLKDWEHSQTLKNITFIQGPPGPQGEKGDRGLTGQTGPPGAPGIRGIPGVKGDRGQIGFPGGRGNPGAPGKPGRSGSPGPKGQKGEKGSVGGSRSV
Method: as §1, with “In method A, cells were prechilled on ice for 15 min, re-fed with ^125I-AcLDL in ice-cold medium B supplemented with 10% (v/v) fetal bovine serum, with or without 75-200 μg/ml unlabeled M-BSA, and incubated 2 hr at 4° C. on a shaker. Cells were then washed rapidly three times with Tris wash buffer (50 mM Tris-HCl, 0.15M NaCl, pH 7.4) containing 2 mg/ml BSA, followed by two 5 min washes, and two rapid washes with Tris wash buffer without BSA.” left out
COS cells were transfected on day 1 with murine scavenger receptor type II. […] On day 3, ^125I-AcLDL (5 μg/ml) in medium B plus 10% fetal bovine serum was added to the cells and degradation was measured after a 5 hr incubation at 37° C. in the absence (duplicate determinations) or presence (duplicate determinations) of the indicated amounts of polyanions. […]

T2 sequence (P16671 whole entry): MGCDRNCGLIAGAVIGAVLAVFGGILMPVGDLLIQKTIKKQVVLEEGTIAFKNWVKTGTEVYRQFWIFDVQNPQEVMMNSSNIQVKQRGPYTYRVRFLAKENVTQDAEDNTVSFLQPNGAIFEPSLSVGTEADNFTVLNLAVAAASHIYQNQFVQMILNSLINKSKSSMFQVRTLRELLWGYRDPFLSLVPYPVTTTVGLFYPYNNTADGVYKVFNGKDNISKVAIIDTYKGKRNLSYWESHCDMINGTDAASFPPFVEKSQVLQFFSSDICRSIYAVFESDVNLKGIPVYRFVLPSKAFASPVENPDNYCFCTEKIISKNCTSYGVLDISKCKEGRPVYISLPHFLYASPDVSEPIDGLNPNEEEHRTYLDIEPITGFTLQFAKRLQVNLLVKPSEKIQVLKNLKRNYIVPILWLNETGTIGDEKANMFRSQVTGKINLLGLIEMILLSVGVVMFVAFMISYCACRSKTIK

CCN(CC)CCCC(C)Nc1ccnc2cc(Cl)ccc12 (centres unmarked) [chloroquine]
effect on 125I-AcLDL binding plus uptake (Var-261 cells [1]; 37° C.): not | effect on 125I-AcLDL degradation (Var-261 cells [1]; 37° C.): inhibited

Dextran
Degradation (% No Competitor) (dSR-CI; competitor 400 μg/ml): 100 % No Competitor

M-BSA: maleylated BSA
Degradation (% No Competitor) (dSR-CI; competitor 400 μg/ml): 6.7 % No Competitor | competition for 125I-AcLDL degradation (Var-261 cells [1]; 37° C.): inhibited | inhibition of 125I-AcLDL binding (haSR-BI): inhibited | inhibition of 125I-AcLDL binding (Var-261 cells [2]): inhibited | inhibition of receptor activity, 125I-AcLDL degradation (CD36): inhibited

Poly D-glutamic acid
Degradation (% No Competitor) (dSR-CI; competitor 400 μg/ml): 34 % No Competitor

Polyriboguanylic acid [poly G]
competition for 125I-AcLDL degradation (Var-261 cells [1]; 37° C.): effective competitors | competition for 125I-AcLDL degradation [3]: effective competitors | inhibition of 125I-AcLDL binding (haSR-BI): not inhibited | inhibition of 125I-AcLDL binding (Var-261 cells [2]): competitors | inhibition of receptor activity, 125I-AcLDL degradation (CD36): not

carrageenan
inhibition of 125I-AcLDL binding (haSR-BI): not inhibited | inhibition of 125I-AcLDL binding (Var-261 cells [2]): competitors

dextran sulfate
Degradation (% No Competitor) (dSR-CI; competitor concentration not given): 4.2 % No Competitor

fucoidin
competition for 125I-AcLDL degradation (Var-261 cells [1]; 37° C.): effective competitors | competition for 125I-AcLDL degradation [3]: effective competitors | inhibition of 125I-AcLDL binding (haSR-BI): not inhibited | inhibition of 125I-AcLDL binding (Var-261 cells [2]): competitors | inhibition of receptor activity, 125I-AcLDL degradation (CD36): not

polyriboinosinic acid [poly I]
Degradation (% No Competitor) (dSR-CI; competitor 400 μg/ml): 2.7 % No Competitor | inhibition of 125I-AcLDL degradation (Var-261 cells [1]; competitor at 400 μg/ml): 34% | inhibition of 125I-AcLDL degradation ([3]; class A scavenger receptors, competitor at 2.5 μg/ml): greater than 50% | inhibition of receptor activity, 125I-AcLDL degradation (CD36): not

From patent US6350859B1, “Class BI and CI scavenger receptors” (Massachusetts Institute of Technology, priority 1994, dated 2002)
